In ChEMBL document CHEMBL1201862, “PubChem BioAssay data set” (2004):
Activity calls are given as the source filed them.

Experiments:
[1] = test system: CHO; experiment: CHO cell viability loss, potency – luminescence, cytotoxicity control for TLR9-MyD88 binding inhibitor project, dose response (AID 588339); format: functional, cell-based, hamster; conditions: Cricetulus griseus;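 further: CHO cells stably coexpressing TLR9 and MyD88 fusions from primary screen; compound exposure lasted 48 hours before viability readout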
[2] = target: Voltage-dependent T-type calcium channel subunit alpha-1H (Homo sapiens, UniProt O95180); format: functional;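 further: channel activity triggered by adding a high calcium stimulation buffer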
[3] = target: Beta Lactamase (Pseudomonas aeruginosa, UniProt Q932Y6); experiment: BLA reporter interference, concentration series – BLA reporter cells, FRET fluorescence, artefact control for TLR9-MyD88 binding inhibitor project, dose response (AID 588341); format: cell-based;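 further: cell based assay in CHO-K1 cells stably expressing beta-lactamase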
[4] = target: T1, Protein skinhead-1 (Caenorhabditis elegans, UniProt P34707); format: functional
T1 sequence (P34707 whole entry): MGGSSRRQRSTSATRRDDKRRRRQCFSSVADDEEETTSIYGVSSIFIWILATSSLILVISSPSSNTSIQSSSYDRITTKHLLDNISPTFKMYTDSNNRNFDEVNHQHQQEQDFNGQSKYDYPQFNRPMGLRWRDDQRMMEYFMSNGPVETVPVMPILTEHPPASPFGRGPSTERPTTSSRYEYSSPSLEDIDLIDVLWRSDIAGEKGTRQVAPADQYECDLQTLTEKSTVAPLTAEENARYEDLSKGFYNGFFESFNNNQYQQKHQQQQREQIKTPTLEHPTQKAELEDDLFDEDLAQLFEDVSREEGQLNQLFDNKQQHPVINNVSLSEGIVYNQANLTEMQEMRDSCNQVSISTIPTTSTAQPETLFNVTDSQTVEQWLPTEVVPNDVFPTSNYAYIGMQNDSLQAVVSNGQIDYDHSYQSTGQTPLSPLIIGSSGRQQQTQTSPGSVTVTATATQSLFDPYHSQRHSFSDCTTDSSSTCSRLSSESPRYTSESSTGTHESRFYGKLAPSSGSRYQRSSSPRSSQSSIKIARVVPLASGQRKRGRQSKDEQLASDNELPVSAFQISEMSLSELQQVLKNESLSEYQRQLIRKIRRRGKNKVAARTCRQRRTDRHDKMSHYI

[5] = target: T2, Aryl hydrocarbon receptor (Homo sapiens, UniProt P35869); conditions: Potency;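 further: confirmatory quantitative high-throughput screen measuring activation of the AhR signaling pathway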
T2 sequence (P35869 whole entry): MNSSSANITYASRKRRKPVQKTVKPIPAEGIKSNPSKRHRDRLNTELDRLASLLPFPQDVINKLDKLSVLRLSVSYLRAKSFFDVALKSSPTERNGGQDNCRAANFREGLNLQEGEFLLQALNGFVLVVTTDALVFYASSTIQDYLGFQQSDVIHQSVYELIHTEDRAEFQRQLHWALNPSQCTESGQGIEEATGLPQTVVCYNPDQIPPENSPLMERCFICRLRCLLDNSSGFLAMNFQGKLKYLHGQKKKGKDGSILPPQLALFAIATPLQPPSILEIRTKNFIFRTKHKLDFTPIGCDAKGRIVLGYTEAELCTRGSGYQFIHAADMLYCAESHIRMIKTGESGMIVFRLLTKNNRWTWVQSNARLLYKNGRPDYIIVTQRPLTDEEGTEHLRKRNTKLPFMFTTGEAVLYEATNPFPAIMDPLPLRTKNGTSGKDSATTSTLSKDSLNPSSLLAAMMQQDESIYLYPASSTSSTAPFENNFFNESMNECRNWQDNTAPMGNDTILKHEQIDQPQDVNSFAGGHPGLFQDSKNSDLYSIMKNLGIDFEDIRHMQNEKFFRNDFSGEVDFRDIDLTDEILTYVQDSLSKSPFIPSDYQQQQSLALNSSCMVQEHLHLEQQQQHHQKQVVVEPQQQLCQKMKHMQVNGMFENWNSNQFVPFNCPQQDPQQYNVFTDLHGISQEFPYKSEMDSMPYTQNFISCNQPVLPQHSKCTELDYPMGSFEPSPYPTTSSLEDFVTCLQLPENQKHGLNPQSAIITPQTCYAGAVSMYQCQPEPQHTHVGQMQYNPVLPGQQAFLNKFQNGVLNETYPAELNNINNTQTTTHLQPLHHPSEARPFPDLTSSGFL

[6] = target: T3, Endoribonuclease toxin MazF (Escherichia coli K-12, UniProt P0AE70); experiment: activation of MazEF endoribonuclease cleavage – biochemical, fluorescence, single-stranded RNA substrate, uHTS hits, dose response (AID 588481); format: functional
T3 sequence (P0AE70 whole entry): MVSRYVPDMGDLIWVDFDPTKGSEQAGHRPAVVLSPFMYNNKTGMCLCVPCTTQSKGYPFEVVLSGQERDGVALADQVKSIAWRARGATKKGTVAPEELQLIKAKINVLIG

[7] = target: T3, Endoribonuclease toxin MazF; experiment: substrate-only fluorescence increase artefacts – biochemical, single-stranded RNase substrate, counter-screen for MazEF activator project, dose response (AID 588502); format: functional
[8] = target: 72 kDa type IV collagenase (Homo sapiens, UniProt P08253); experiment: Dose Response validation of uHTS RPN11 inhibitor hits using a MMP-2 Fluorescence assay.; format: functional
[9] = target: 26S proteasome non-ATPase regulatory subunit 14 (Homo sapiens, UniProt O00487); experiment: inhibition of proteasome subunit RPN11 – biochemical, fluorescence polarization, uHTS hits, confirmation (AID 602368); format: functional
[10] = target: Prothrombin (Bos taurus, UniProt P00735); experiment: thrombin protease inhibitors – biochemical, fluorescence polarization, uHTS hits, dose response (AID 602369); format: functional
[11] = target: Mitochondrial peptide methionine sulfoxide reductase (Bos taurus, UniProt P54149); format: functional;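 further: absorbance read-out, biochemical high-throughput dose-response screen for MsrA inhibitors, confirmatory; recombinant bovine MsrA coupled to E. coli TrxB with NADPH and selenocystamine; potency is for inhibitors of MsrA activity on DMSO substrate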
[12] = activation of miR-122 Renilla sensor silencing – cell-based, Huh7 psiCHECK-miR122, Renilla luciferase, cherry-picked, dose response (AID 651956); format: functional;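 further: huh7 hepatoma cells stably carrying a psiCHECK-2 miR-122 sensor plasmid; renilla luciferase signal reporting endogenous miR-122 activity after 48 h compound exposure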
[13] = target: Melanocortin receptor 4 (Homo sapiens, UniProt P32245); format: functional, cell-based;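 further: Cell-based assay with luminescence read-out, confirmatory dose-response testing for agonist activity of biased ligands at MC4R; human U2OS cells with tagged receptor and beta-arrestin; potency of agonists that increase receptor coupling to beta-arrestin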
[14] = target: Cytochrome P450 3A4 (Homo sapiens, UniProt P08684);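 further: CYP3A4 tested as one member of a cytochrome P450 panel screen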
Sequence of Cytochrome P450 3A4 (P08684 whole entry): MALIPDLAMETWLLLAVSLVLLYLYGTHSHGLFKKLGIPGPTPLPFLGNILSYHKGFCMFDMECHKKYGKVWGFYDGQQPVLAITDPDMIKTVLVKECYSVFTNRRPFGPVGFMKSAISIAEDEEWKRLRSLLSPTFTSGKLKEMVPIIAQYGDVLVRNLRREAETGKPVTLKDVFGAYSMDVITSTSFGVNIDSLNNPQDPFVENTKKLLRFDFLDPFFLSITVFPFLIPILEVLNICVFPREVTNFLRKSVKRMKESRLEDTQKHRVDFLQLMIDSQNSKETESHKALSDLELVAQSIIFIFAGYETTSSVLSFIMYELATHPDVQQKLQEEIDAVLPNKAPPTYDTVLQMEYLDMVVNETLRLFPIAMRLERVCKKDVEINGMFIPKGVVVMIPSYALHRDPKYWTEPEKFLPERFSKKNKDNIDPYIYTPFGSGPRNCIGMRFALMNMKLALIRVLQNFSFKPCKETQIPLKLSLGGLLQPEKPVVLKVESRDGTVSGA

Sequence of 72 kDa type IV collagenase (P08253 whole entry): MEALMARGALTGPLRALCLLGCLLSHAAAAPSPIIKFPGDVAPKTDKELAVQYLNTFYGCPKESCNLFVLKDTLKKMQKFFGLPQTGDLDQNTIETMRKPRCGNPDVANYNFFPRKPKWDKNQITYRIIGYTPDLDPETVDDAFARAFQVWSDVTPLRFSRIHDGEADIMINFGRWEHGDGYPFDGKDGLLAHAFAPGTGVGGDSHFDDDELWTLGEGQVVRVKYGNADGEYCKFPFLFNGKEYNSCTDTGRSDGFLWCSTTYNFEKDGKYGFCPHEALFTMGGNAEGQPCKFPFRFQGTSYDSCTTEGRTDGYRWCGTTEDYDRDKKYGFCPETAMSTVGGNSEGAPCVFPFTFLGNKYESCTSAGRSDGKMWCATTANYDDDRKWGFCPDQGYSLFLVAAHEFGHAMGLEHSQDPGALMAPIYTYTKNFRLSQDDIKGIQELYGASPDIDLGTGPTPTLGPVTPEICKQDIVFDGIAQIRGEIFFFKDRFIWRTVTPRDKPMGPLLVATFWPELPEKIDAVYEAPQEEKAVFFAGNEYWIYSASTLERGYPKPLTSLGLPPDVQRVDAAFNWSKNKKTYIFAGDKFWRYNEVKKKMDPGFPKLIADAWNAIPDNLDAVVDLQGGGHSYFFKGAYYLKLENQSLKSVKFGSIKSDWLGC
Sequence of 26S proteasome non-ATPase regulatory subunit 14 (O00487 whole entry): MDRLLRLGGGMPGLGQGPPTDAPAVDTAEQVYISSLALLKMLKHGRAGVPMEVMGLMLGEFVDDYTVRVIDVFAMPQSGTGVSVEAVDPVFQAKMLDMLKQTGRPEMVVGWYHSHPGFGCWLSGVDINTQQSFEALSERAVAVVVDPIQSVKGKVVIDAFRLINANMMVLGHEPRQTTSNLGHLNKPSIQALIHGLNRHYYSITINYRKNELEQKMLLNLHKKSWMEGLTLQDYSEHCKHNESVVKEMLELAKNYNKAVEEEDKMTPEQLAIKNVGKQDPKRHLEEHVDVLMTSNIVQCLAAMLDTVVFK
Sequence of Melanocortin receptor 4 (P32245 whole entry): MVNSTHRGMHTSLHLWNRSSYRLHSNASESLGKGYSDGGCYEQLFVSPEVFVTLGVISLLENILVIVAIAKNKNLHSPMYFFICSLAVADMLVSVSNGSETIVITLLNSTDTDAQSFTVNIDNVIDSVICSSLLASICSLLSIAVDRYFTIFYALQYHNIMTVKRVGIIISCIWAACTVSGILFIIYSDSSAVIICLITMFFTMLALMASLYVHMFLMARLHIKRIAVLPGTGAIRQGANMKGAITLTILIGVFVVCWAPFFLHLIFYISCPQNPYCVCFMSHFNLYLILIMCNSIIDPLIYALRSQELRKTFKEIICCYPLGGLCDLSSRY
Sequence of Voltage-dependent T-type calcium channel subunit alpha-1H (O95180 whole entry): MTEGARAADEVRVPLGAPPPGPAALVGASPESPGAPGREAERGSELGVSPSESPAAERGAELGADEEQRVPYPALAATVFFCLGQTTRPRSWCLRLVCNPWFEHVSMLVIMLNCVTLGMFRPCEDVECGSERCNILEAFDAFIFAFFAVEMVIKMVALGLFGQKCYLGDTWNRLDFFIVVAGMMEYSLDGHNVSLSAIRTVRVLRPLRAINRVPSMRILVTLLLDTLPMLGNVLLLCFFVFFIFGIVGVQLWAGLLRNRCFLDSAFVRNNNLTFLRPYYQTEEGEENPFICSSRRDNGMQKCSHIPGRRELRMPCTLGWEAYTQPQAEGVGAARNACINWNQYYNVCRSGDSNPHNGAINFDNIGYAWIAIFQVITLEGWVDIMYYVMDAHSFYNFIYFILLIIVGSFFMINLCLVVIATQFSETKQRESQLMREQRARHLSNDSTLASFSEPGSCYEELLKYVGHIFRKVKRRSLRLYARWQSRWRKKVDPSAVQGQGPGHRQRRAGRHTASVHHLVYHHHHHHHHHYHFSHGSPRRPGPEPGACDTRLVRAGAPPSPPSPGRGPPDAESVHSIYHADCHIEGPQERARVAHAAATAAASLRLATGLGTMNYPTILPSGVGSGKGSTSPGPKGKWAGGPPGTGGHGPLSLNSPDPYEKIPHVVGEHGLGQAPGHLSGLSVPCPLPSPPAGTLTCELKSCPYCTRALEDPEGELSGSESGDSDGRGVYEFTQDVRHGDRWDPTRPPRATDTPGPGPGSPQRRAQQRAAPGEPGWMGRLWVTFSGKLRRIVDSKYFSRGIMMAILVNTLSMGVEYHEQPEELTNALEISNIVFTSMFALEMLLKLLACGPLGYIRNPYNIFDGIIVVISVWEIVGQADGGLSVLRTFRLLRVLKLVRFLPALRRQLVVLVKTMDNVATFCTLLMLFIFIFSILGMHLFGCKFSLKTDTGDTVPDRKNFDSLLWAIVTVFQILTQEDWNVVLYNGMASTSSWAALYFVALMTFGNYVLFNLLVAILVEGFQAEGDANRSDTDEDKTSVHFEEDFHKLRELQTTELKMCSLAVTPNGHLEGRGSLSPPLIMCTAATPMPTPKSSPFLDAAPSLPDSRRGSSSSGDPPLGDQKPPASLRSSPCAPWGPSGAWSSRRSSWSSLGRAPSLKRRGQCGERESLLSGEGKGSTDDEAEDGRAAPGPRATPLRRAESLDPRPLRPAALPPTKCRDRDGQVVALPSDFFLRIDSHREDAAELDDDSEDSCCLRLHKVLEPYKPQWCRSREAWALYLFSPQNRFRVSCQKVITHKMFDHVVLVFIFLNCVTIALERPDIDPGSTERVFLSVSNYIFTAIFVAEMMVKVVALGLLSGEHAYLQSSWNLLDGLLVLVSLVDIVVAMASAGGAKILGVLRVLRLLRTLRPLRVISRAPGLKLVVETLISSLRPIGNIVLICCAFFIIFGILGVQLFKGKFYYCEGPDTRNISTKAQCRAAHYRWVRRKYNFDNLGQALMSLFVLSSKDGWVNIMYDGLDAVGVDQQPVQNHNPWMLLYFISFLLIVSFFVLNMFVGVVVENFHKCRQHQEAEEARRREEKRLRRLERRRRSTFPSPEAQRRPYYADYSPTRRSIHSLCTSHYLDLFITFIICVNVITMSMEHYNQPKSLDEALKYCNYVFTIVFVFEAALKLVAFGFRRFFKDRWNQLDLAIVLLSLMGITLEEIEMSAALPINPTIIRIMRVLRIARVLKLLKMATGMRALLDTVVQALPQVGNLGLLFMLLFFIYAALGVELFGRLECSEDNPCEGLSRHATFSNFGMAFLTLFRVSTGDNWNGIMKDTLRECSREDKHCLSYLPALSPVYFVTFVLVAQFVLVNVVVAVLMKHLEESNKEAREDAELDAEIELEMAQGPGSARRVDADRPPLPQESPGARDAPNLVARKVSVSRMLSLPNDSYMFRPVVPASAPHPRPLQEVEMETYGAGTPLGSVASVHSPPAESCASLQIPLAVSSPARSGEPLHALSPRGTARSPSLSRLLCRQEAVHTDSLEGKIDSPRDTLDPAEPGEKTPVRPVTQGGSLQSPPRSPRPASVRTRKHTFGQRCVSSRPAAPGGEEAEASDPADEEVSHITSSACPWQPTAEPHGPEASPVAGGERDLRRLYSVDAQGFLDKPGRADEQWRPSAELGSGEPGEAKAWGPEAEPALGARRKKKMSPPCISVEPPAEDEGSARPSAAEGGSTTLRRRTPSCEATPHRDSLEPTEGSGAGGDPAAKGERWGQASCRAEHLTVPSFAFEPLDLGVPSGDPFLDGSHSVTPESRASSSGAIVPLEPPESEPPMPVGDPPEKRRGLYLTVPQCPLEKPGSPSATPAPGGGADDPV
Sequence of Mitochondrial peptide methionine sulfoxide reductase (P54149 whole entry): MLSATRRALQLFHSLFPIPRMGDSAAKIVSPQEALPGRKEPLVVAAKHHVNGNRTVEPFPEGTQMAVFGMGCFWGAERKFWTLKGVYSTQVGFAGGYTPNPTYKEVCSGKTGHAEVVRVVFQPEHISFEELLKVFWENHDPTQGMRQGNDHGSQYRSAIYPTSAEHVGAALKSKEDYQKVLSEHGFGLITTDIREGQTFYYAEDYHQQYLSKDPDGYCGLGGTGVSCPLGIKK
Sequence of Beta Lactamase (Q932Y6 whole entry): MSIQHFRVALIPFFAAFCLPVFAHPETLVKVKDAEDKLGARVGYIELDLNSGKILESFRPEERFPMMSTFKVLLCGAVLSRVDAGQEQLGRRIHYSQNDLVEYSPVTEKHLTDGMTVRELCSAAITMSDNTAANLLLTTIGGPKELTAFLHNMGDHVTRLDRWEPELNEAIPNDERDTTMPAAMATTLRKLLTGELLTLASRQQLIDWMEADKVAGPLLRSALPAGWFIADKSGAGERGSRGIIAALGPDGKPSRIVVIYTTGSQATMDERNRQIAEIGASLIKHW

Structure (SMILES): CCCN1C(=O)/C(=C/c2ccc(N3CCCC3)c(C)c2)NC1=S
- IC50 [1]: 32.1 µM (inactive)
- EC50 [2]: 3.84 µM (active)
- IC50 [3]: 6.66 µM (active)
- IC50 [4]: > 100 µM (inactive)

Structure (SMILES): CON=C(C(=O)OC)c1ccccc1CO/N=C(\C)c1cccc(C(F)(F)F)c1
- AC50 [5]: 63.1 µM (inconclusive)

Structure (SMILES): O=C(COc1cccc(Cl)c1)N/N=C\c1cc2ccccc2nc1Cl
- EC50 [6]: > 99 µM (inactive)
- EC50 [7]: > 99 µM (inactive)

Structure (SMILES): CCCC/N=c1\scc(-c2ccc3c(c2)NC(=O)CO3)n1N=C1CCCC1
- IC50 [8]: > 100 µM (inactive)
- IC50 [9]: 26.6 µM (active)
- IC50 [10]: 27.7 µM (active)

Structure (SMILES): COc1cc(/C=C(\C#N)C(=O)Nc2cc(C(F)(F)F)ccc2Cl)ccc1OCC(=O)Nc1cccc(C(F)(F)F)c1
- IC50 [8]: > 100 µM (inactive)
- IC50 [9]: 32.5 µM (active)
- IC50 [10]: 40.2 µM (active)

Structure (SMILES): CN(/N=C/C=C/c1ccccc1)c1cc(=O)n(C)c(=O)[nH]1
- IC50 [11]: 155 µM (inactive)

Structure (SMILES): CC(=O)Nc1ccc(S(=O)(=O)Nc2ccc(S(=O)(=O)Nc3nc(C)cc(C)n3)cc2)cc1
- AC50 [12]: 19.7 µM (active)

Structure (SMILES): O=C(N/N=C/c1ccc(OCc2ccccc2)cc1)c1cccs1
- EC50 [13]: > 89.2 µM (inactive)
- AC50 [14]: 39.8 µM (inconclusive)

Structure (SMILES): CCOc1ccc(C(=O)N/N=C/c2cc(Cl)ccc2[N+](=O)[O-])cc1
- IC50 [8]: > 100 µM (inactive)
- IC50 [9]: 19.3 µM (active)
- IC50 [10]: 59.3 µM (active)

Structure (SMILES): Cc1ccc(/N=C/N(C)/C=N/c2ccc(C)cc2C)c(C)c1 [AMITRAZ]
- AC50 [5]: 50.1 µM (inconclusive)
